Test results: US20100261662A1, “UTILIZATION OF MURAL THROMBUS FOR LOCAL DRUG DELIVERY INTO VASCULAR TISSUE” (ENDOLOGIX, INC., priority 2009, published 2010)

Columns and labels:
skin collagen = details: rats treated with catechin; cited from earlier work
[1] = tested on: collagen contained within the vascular tissue; test: Short-term application of catechin to vascular tissue; details: short-term (approximately 10-30 minute) application
From the text: Catechin can be delivered in solution form into the mural thrombus. This delivery method pathway can be used, without limitation, when a short-acting application of a high-concentration of catechin is desired. […] In some embodiments, the concentration of the agent can be in the range from approximately 0.01% to approximately 20%, or between approximately 2.0% and approximately 10.0%, or to or from any values within these ranges.

**Q.** Which “stability of skin collagen against enzymatic degradation” value (skin collagen) does the source give for catechin here?
**A.** Its value is “stable against enzymatic degradation”.

**Q.** And the “stabilization of collagen in vascular tissue” value [1]?
**A.** Its value is “can stabilize the collagen”.
